Assay results from US7338958B2, “Sulfoximine-substituted pyrimidines as CDK-and/or VEGF inhibitors, their production and use as pharmaceutical agents” (Schering AG, priority 2003, dated 2008).
pIC50: −log10 of the molar value. Where two headings read alike, the source gives them in different places.

Key:
[1] = target: T1, VEGF receptor tyrosine kinase-2 (Homo sapiens, UniProt P35968); experiment: VEGF Receptor-2 Kinase Assay; assay type: biochemical; details: 33P-ATP, 10 minutes at 22° C.
T1 construct: GST; made in house; host or cells: baculovirus-infected insect cells (Sf9)
T1 sequence (P35968 20-1356): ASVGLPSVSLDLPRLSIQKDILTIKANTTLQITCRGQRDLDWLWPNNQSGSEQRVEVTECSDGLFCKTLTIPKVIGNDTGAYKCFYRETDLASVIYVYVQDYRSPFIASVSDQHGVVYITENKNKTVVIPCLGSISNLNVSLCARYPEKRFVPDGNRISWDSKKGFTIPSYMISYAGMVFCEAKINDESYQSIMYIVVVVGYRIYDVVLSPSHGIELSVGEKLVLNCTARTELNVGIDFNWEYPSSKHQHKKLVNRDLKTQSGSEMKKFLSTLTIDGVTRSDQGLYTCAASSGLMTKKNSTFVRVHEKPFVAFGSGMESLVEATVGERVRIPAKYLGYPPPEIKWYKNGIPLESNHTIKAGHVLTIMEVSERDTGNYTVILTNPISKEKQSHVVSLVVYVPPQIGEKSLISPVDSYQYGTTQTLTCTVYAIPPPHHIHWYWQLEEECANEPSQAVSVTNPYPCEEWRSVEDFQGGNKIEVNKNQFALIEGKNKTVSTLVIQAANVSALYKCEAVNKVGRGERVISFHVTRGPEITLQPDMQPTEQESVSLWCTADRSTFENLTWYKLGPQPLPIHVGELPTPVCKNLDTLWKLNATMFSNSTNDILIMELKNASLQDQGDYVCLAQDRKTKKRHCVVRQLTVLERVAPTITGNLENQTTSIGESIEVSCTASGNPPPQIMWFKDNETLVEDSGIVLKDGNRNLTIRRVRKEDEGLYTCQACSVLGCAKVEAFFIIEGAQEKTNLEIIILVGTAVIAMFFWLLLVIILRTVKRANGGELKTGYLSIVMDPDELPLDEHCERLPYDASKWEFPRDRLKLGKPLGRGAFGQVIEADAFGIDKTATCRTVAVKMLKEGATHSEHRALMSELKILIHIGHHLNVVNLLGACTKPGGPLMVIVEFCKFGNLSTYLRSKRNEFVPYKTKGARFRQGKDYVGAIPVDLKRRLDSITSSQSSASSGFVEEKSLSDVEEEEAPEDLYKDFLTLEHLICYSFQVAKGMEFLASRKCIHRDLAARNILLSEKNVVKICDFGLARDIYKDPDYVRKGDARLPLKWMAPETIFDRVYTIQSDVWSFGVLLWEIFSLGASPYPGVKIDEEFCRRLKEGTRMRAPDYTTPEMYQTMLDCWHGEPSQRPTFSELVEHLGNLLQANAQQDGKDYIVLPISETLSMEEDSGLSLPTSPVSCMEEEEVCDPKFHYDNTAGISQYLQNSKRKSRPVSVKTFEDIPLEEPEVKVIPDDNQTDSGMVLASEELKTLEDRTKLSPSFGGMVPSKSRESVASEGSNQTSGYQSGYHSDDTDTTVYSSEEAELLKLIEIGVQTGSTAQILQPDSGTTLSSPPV
Description: VEGF Receptor-2 Kinase Assay
Recombinant VEGF receptor tyrosine kinase-2 was purified as a GST fusion protein from baculovirus-infected insect cells (Sf9). Poly-(Glu4Tyr), which was used as a kinase substrate, was purchased by the Sigma Company.
VEGF receptor tyrosine kinase (90 ng/measuring point) was incubated for 10 minutes at 22° C. in the presence of various concentrations of test substances (0 μm, as well as within the range of 0.001-30 μm) in 30 μl of assay buffer [40 mmol of Tris/HCl, […], 10 mmol of MgCl2, 1 mmol of MnCl2, 3 μmol of Na ortho-vanadate, 1.0 mmol of dithiothreitol, 8 μmol of adenosine trisphosphate (ATP), 27 μg/measuring point of poly-(Glu4Tyr), 0.2 μCi/measuring point of 33P-gamma ATP, 1% dimethyl sulfoxide]. The reaction was stopped by adding EDTA solution (250 mmol, pH 7.0, 10 μl/measuring point).
(§1) From each reaction batch, 10 μl was applied to P30 filter strips (Wallac Company), and non-incorporated 33P-ATP was removed by subjecting the filter strips to three washing cycles for 10 minutes each in 0.5% phosphoric acid. After the filter strips were dried for one hour at 70° C., the filter strips were covered with scintillator strips (MeltiLex™ A, Wallac Company) and baked for one hour at 90° C. The amount of incorporated 33P (substrate phosphorylation) was determined by scintillation measurement in a gamma-radiation measuring device (Wallac).

[2] = test system: NCI-H460, human non-small-cell lung cancer cells; experiment: Proliferation assay, H460; assay type: cell-based; details: NCI-H460, 96 h, 4 days incubation, crystal violet
Excerpt: (§2) Cultivated human tumor cells (MCF7, hormone-independent human breast cancer cells, related to ATCC HTB22; NCI-H460, human non-small-cell lung cancer cells, ATCC HTB-177, HCT 116, human colon cancer cells, ATCC CCL-247; DU 145, hormone-independent human prostate cancer cells, ATCC HTB-81; MaTu-MDR, hormone-independent, multiple pharmaceutical agent-resistant human breast cancer cells, EPO-GmbH, Berlin) were flattened out at a density of about 5000 cells/measuring point, depending on the growth rate of the respective cells, in a 96-well multititer plate in 200 μl of the corresponding growth medium. After 24 hours, the cells of one plate (zero-point plate) were colored with crystal violet (see below), while the medium of the other plates was replaced by fresh culture medium (200 μl), to which the test substances were added in various concentrations (0 μm, as well as in the range of 0.01-30 μm; the final concentration of the solvent dimethyl sulfoxide was 0.5%). The cells were incubated for 4 days in the presence of test substances. The cell proliferation was determined by coloring the cells with crystal violet: the cells were fixed by adding 20 μl/measuring point of an 11% glutaric aldehyde solution for 15 minutes at room temperature. After three washing cycles of the fixed cells with water, the plates were dried at room temperature. The cells were colored by adding 100 μl/measuring point of a 0.1% crystal violet solution (the pH was set at 3 by adding acetic acid). After three washing cycles of the colored cells with water, the plates were dried at room temperature. The dye was dissolved by adding 100 μl/measuring point of a 10% acetic acid solution. The extinction was determined by photometry at a wavelength of 595 nm. The change of cell growth, in percent, was calculated by normalization of the measured values to the extinction values of the zero-point plate (=0%) and the extinction of the untreated (0 μm) cells (=100%).

[3] = target: T2, CDK1/CycB (Homo sapiens, UniProt P06493); experiment: CDK1/CycB Kinase Assay; assay type: biochemical; details: histone IIIS substrate, 33P-ATP, 15 minutes at 22° C.
T2 construct: GST; purchased ProQinase GmbH, Freiburg; host or cells: baculovirus-infected insect cells (Sf9)
T2 sequence (P06493 whole entry): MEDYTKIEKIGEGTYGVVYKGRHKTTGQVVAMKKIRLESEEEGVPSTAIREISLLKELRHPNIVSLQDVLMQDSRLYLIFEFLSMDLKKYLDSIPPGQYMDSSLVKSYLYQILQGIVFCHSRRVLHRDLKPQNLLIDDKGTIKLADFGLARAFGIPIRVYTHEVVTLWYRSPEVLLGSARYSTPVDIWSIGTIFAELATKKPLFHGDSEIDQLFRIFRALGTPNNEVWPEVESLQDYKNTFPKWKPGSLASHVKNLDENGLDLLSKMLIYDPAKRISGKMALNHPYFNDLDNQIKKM
T2 sequence (P14635 whole entry partner): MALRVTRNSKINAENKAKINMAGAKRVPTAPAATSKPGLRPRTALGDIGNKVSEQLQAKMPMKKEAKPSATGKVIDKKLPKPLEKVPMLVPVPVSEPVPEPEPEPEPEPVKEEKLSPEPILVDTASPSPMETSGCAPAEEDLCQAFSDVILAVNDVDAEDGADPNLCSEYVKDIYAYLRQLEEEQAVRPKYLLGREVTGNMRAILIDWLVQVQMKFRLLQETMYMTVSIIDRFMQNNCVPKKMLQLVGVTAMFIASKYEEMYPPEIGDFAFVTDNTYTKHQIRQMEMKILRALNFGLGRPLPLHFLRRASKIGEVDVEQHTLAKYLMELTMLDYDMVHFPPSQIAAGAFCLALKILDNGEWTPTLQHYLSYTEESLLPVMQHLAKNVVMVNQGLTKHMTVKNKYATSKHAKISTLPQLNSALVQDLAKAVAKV
Description: Recombinant CDK1- and CycB-GST-fusion proteins, purified from baculovirus-infected insect cells (Sf9), were purchased from ProQinase GmbH, Freiburg. Histone IIIS, used as a kinase substrate, is available commercially from the Sigma Company.
The reaction was stopped by adding EDTA solution (250 mmol, pH 8.0, 14 μl/measuring point).
as §1

[4] = test system: MCF7, hormone-independent human breast cancer cells; experiment: Proliferation assay, MCF7; assay type: cell-based; details: MCF7, 96 h, 4 days incubation, crystal violet
Excerpt: as §2

[5] = test system: DU 145, hormone-independent human prostate cancer cells; experiment: Proliferation assay, DU145; assay type: cell-based; details: DU-145, 96 h, 4 days incubation, crystal violet
Excerpt: as §2

[6] = test system: MaTu-ADR; experiment: Proliferation assay, MaTu-ADR; assay type: cell-based; details: Homo sapiens, 96 h, MaTu-ADR cells, 4 days incubation, crystal violet
Excerpt: as §2

[7] = target: T3, CDK2/CycE (Homo sapiens, UniProt P24941); experiment: CDK2/CycE Kinase Assay; assay type: biochemical; details: histone IIIS substrate, 33P-ATP, 15 minutes at 22° C.
T3 construct: GST; purchased ProQinase GmbH, Freiburg; host or cells: baculovirus-infected insect cells (Sf9)
Description: Recombinant CDK2- and CycE-GST-fusion proteins, purified from baculovirus-infected insect cells (Sf9), were purchased by ProQinase GmbH, Freiburg. Histone IIIs, which was used as a kinase substrate, was purchased by the Sigma Company.
CDK2/CycE (50 ng/measuring point) was incubated for 15 minutes at 22° C. in the presence of various concentrations of test substances (0 μm, as well as within the range of 0.01-100 μm) in assay buffer [50 mmol of tris/HCl, pH 8.0, 10 mmol of MgCl2, 0.1 mmol of Na ortho-vanadate, 1.0 mmol of dithiothreitol, 0.5 μm of adenosine triphosphate (ATP), 10 μg/measuring point of histone IIIS, 0.2 μCi/measuring point of ^33P-gamma ATP, 0.05% NP40, 12.5% dimethyl sulfoxide]. The reaction was stopped by adding EDTA solution (250 mmol, pH 8.0, 14 μl/measuring point).
as §1, with “^33P-ATP” for “33P-ATP”, “^33P” for “33P”

[8] = poly-(Glu4Tyr) substrate, read-out: VEGF-R2 IC50

Compound | pIC50 [1, 8] | pIC50 [2] | pIC50 [3] | pIC50 [4] | pIC50 [5] | pIC50 [7] | pIC50 [6] | pIC50 ([1]; VEGF-R2 IC50, poly-(Glu4Tyr) substrate)
C[C@@H](Nc1nc(Nc2ccc(S(C)(=N)=O)cc2)ncc1Br)C(C)(C)O (mixture of isomers) [Example 1.41, (RS)-S-[4-({5-bromo-4-[(R)-(2-hydroxy-1,2-dimethylpropyl)amino]pyrimidin-2-yl}amino)phenyl]-S-methyl sulfoximide] | – | 7.15 | – | 7.10 | 7.05 | – | 7.15 | –
CCOC(=O)N=S(C)(=O)c1ccc(Nc2ncc(Br)c(N[C@H](COC)[C@@H](C)O)n2)cc1 (mixture of isomers) [Example 1.34, (RS)-S-{4-[(5-bromo-4-{[(1R,2R)-2-hydroxy-1-(methoxymethyl)propyl]amino}pyrimidin-2-yl)amino]phenyl}-N-(ethoxycarbonyl)-S-methyl sulfoximide] | 6.28 | – | – | 6.10 | – | 7.55 | – | –
CCC(Sc1nc(Nc2ccc(S(C)(=N)=O)cc2)ncc1Br)C(C)O (racemic) [Example 3.6, (RS)-S-[4-({5-bromo-4-[(RS,RS)-(1-ethyl-2-hydroxypropyl)sulfanyl]pyrimidin-2-yl}amino)phenyl]-S-methyl sulfoximide] | – | 7.70 | 7.66 | 7.10 | 7.70 | 7.74 | 7.70 | –
C[C@H](CO)Nc1nc(Nc2ccc(S(=O)(CC3CC3)=NS(=O)(=O)CC[Si](C)(C)C)cc2)ncc1Br (mixture of isomers) [Example 1.7, (RS)-S-[4-({5-bromo-4-[(R)-(2-hydroxy-1-methylethyl)amino]pyrimidin-2-yl}amino)phenyl]-S-(cyclopropylmethyl)-N-[2-(trimethylsilyl)ethylsulfonyl]sulfoximide] | – | – | < 6.00 | 5.96 | – | < 6.00 | – | 6.62
C[C@@H](O)[C@@H](C)Nc1nc(Nc2ccc(S(C)(=N)=O)cc2)ncc1Br (single isomer, unassigned) [Example 1.2] | – | 7.52 | – | – | 7.40 | – | 7.40 | –
CCOC(=O)N=S(=O)(CC)c1ccc(Nc2ncc(Br)c(O[C@H](C)[C@@H](C)O)n2)cc1 (mixture of isomers) [Example 1.39, (RS)-S-[4-({5-bromo-4-[(1R,2R)-2-hydroxy-1-methylpropoxy]pyrimidin-2-yl}amino)phenyl]-N-(ethoxycarbonyl)-S-ethyl sulfoximide] | – | 6.52 | 7.31 | 6.52 | 6.52 | 7.72 | 6.05 | –
COc1cc(Nc2ncc(Br)c(O[C@H](C)[C@@H](C)O)n2)ccc1S(C)(=N)=O (mixture of isomers) [Example 1.24, (RS)-S-[4-({5-bromo-4-[(1R,2R)-2-hydroxy-1-methylpropoxy]pyrimidin-2-yl}amino)-2-methoxyphenyl]-S-methyl sulfoximide] | 6.82 | 7.15 | 8.30 | > 7.00 | 6.89 | – | 7.10 | –
CN=S(C)(=O)c1ccc(Nc2ncc(Br)c(N[C@H](C)[C@@H](C)O)n2)cc1 (mixture of isomers) [Example 1.28, (RS)-S-[4-({5-bromo-4-[(1R,2R)-(2-hydroxy-1-methylpropyl)amino]pyrimidin-2-yl}amino)phenyl]-N,S-dimethyl-sulfoximide] | – | 6.92 | 7.85 | – | 6.70 | 8.15 | 6.70 | –

Further lines, with some results ahead:

pIC50 [1, 8] | pIC50 [2] | pIC50 [3] | pIC50 [4] | pIC50 [5] | pIC50 [7] | Compound | pIC50 [6] | pIC50 ([1]; VEGF-R2 IC50, poly-(Glu4Tyr) substrate)
7.16 | 7.00 | 8.15 | 7.05 | – | – | C[C@@H](Nc1nc(Nc2ccc(S(=N)(=O)CCO)cc2)ncc1Br)C(C)(C)O (single isomer, unassigned) [Example 1.14] | – | –
– | > 7.00 | 7.85 | 6.85 | > 7.00 | 8.10 | C[C@@H](Nc1nc(Nc2ccc(S(=N)(=O)C3CC3)cc2)ncc1Br)C(C)(C)O (mixture of isomers) [Example 1.6, (RS)-S-[4-({5-bromo-4-[(R)-(2-hydroxy-1,2-dimethylpropyl)amino]pyrimidin-2-yl}amino)phenyl]-S-cyclopropylsulfoximide] | > 7.00 | –
– | 6.40 | 6.80 | 6.52 | 6.72 | – | CS(=N)(=O)c1ccc(Nc2ncc(Br)c(Nc3ccccc3)n2)cc1 (racemic) [Example 2.3, (RS)-S-(4-{[5-bromo-4-(phenylamino)pyrimidin-2-yl]amino}phenyl)-S-methyl sulfoximide] | 6.92 | –
6.57 | 6.52 | – | – | 6.40 | – | CCS(=N)(=O)c1ccc(Nc2ncc(Br)c(N[C@H](COC)[C@@H](C)O)n2)cc1 (mixture of isomers) [Example 1.48, (RS)-S-{4-[(5-bromo-4-{[(1R,2R)-2-hydroxy-1-(methoxymethyl)-propyl]amino}pyrimidin-2-yl)amino]phenyl}-S-ethyl sulfoximide] | – | –
7.05 | – | 6.70 | 6.05 | – | 7.20 | CCOc1nc(Nc2ccc(S(=N)(=O)CC)cc2)ncc1Br (racemic) [Example 1.63, (RS)-S-{4-[(5-bromo-4-ethoxypyrimidin-2-yl)amino]phenyl}-S-ethyl sulfoximide] | – | –
7.59 | 7.30 | 8.30 | – | 7.30 | – | CCS(=N)(=O)c1ccc(Nc2ncc(Br)c(N[C@H](C)[C@@H](C)O)n2)cc1 (mixture of isomers) [Example 1.51, (RS)-S-[4-({5-bromo-4-[(1R,2R)-(2-hydroxy-1-methylpropyl)amino]pyrimidin-2-yl}amino)phenyl]-S-ethyl sulfoximide] | 7.22 | –
